Laboratory results published in patent publication US4086350A, “Pharmaceutical compositions and method of producing anti-psychotic activity without extrapyramidal symptoms” (priority 1975, dated 1978).

Key:
[1] = system: amphetamine-induced rotation vs. avoidance acquisition; assay: R/A ratio: ED50 amphetamine-induced rotation / ED50 avoidance acquisition; assay type: in vivo, rat; details: ratio of i.p. ED50 values in rats
Procedure: (§1) To predict the potential ability of a drug to cause EPS, the ratio of its ED50 (i.p.) for antagonism of amphetamine-induced rotation to its ED50 (i.p.) for blockade of shock avoidance acquisition in the rat, a procedure for assessing antipsychotic activity, (R/A ratio) is calculated.

extrapyramidal symptoms = details: compared with chlorpromazine; cited from earlier work
[2] = system: striatal dopamine receptors; assay: Antagonism of amphetamine-induced rotation in rats with unilateral substantia nigra lesions (Ungerstedt); assay type: in vivo, rat; details: i.p., piperidylidene derivatives (Table II)
Source text: There is evidence that antipsychotic drugs cause EPS by interfering with neurotransmission in a nigrostriatal dopaminergic pathway. It is thought that they block dopamine receptors in the neostriatum. Therefore, the ability of a drug to block striatal dopamine receptors is a measure of its EPS liability.
To assess the potency of drugs in blocking striatal dopamine receptors a procedure was used which was developed by Ungerstedt [Ungerstedt and Arbuthnott, Brain Res. 24 485 (1970); Ungerstedt, Acta physiol. scand., Suppl. 367, 49 (1971)] using rats with unilateral lesions of the substantia nigra induced by injection of 6-hydroxydopamine. This treatment causes degeneration of the nigrostriatal dopaminergic pathway accompanied by a marked decrease in the dopamine content of the neostriatum on the side of the lesion. Animals with this lesion develop postural and motor asymmetries which are altered by drugs which affect dopaminergic activity. Amphetamine, which releases dopmine and norepinephrine from catecholaminergic neurons, causes these rats to rotate unidirectionally toward the side of the lesion. Since there is a much larger amount of dopamine to be released by amphetamine from the intact nigrostriatal neurons on the non-lesioned side than from those remaining on the lesioned side, the rotational behavior is apparently due to the preponderance of activation of striatal dopamine receptors on the intact side. The ability of a drug to antagonize the rotational behavior is therefore a measure of its ability to block striatal dopamine receptors and is indicative of its potential to produce EPS.
as §1

[3] = system: shock avoidance acquisition in the rat; assay: Antagonism of shock avoidance acquisition in the rat (antipsychotic activity); assay type: in vivo; details: ip, rats, i.p., piperidylidene derivatives (Table II), read-out: Antagonism of Avoidance Acquisition, Rats, ED50 (A)
Procedure: as §1

[4] = piperidylidene derivatives (Table II)

Row | SMILES | R/A ratio ([1]; clinically established antipsychotics (Table I)) | propensity to cause EPS (extrapyramidal symptoms) | R/A ratio [1, 4] | Antagonism of Amphetamine-induced Rotation, Rats, ED50 (R) [2] [mg/kg] | ED50 [3] [mg/kg]
1 | CN1CCN(C2=Nc3cc(Cl)ccc3Nc3ccccc32)CC1 [Clozapine, reference compound] | 3.8 | known to produce EPS to a lesser extent than chlorpromazine |  |  | 
2 | CSc1ccc2c(c1)N(CCC1CCCCN1C)c1ccccc1S2 (stereo not drawn) [Thioridazine] |  | known to produce EPS to a lesser extent than chlorpromazine |  |  | 
3 | CCCCN1CCC(=C2c3ccccc3Oc3ccc(Br)cc32)CC1 [XXXII, 4-(2-bromo-9-xanthenylidene)-1-n-butylpiperidine] |  |  | 5.0 | 3.0 | 0.6
4 | CN1CCC(=C2c3ccccc3COc3cc(Cl)ccc32)CC1 [XXXIII, 4-(3-chloro-11(6H)-dibenz[b,e]oxepinylidene)-1-methylpiperidine] |  |  | > 3 | > 25 | 7.5
